Assay in all cases: DTP human tumour cell line panel, 48 h
Assay [1] relates to COLO 205 colon.
The subject of assay [2] is HOP-62 NSCLC.
Assay [3] deals with HS 578T breast.
Assay [4] has as its system MCF7 breast.
For assay [5], the system named is MDA-MB-435.
For assay [6], the system named is MOLT-4 leukemia.
Assay [7] has as its system NCI-H226 lung.
The subject of assay [8] is OVCAR-8 ovarian.
In assay [9] the test system is PC-3 prostate.
The test system of assay [10] is SF-268 CNS.
Assay [11] has as its system SK-MEL-5 melanoma.
Assay [12] relates to SK-OV-3 ovarian.
Assay [13] relates to SNB-75 CNS.
Assay [14] relates to SR leukemia.
In assay [15] the test system is UACC-62 melanoma.
The test system of assay [16] is K-562 leukemia.
Assay [17] has as its system A498 renal.

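All cell lines were grown in 96-well plates and treated with compound for 48 hours. GI50 = concentration required for 50% inhibition of growth. TGI: concentration producing complete growth inhibition.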

Turning to `Cc1ccc(SCC(OCn2cnc3c(N)ncnc32)[C@H](C)F)cc1` (stereo not given in full), the concentration for total growth inhibition (TGI) in assay [1], in assay [2], in assay [3], in assay [4], in assay [5] and in assay [6] was greater than 100 µM each time. For the same molecule, the TGI in assay [7], in [8], in [9], in assay [10], in assay [11] and in assay [12] was greater than 100 µM each time. The TGI in [13], in assay [14] and in [15] was greater than 100 µM in each case.
In the case of `CC(=O)OCC1OC(n2c(C)c(N=Nc3ccc(C)cc3)c(C)c(C#N)c2=S)C(OC(C)=O)C(OC(C)=O)C1OC(C)=O` (stereo not given), the TGI was greater than 100 µM in assay [1]; greater than 100 µM in assay [2]; 74.7 µM in [3]; greater than 100 µM in assay [16]; greater than 100 µM in assay [4]; greater than 100 µM in [5]. For the same molecule, the TGI in [6], in assay [9], in assay [10], in assay [11], in [12] and in assay [13] was greater than 100 µM throughout. The TGI in assay [14] and in assay [15] was greater than 100 µM throughout.
In the case of `COC(=O)c1ccccc1C1CN=NC12Cc1c(C)cc(C)cc1C2=O` (stereo not given), the concentration for total growth inhibition (TGI) in [17], in assay [1], in [2], in assay [3], in assay [16] and in [4] was greater than 100 µM throughout. In addition, the total growth inhibition concentration (TGI) in assay [5], in assay [6], in assay [7], in assay [8], in assay [9] and in assay [10] was greater than 100 µM in each case. Further, the TGI in assay [11], in [12], in [13] and in assay [15] was greater than 100 µM in each case.
Regarding `CCCCCCCC1c2cc3[nH]c(cc4nc(cc5[nH]c(cc(n2)[C@@]1(C)CC(=O)N(C)C)c(C)c5CCC(=O)O)C(CCC(=O)O)=C4C)cc3C` (stereo not given in full), the TGI in [17] was found to be 87.2 µM; in assay [1], 32.2 µM; in assay [2], 35.4 µM; in assay [3] it was 40.6 µM; in assay [16], 56.7 µM; in [4], 92.3 µM. Moreover, the TGI in assay [5] is 92.5 µM; in assay [9] it was 64 µM; in [10] it was 42.9 µM; in [11], 51 µM; in assay [12], greater than 100 µM; in assay [13], 40 µM. In addition, the results for the TGI in assay [14] and in [15] were 44.6 µM and 33.1 µM, respectively.
With `Cc1nnc(Nc2ccc(Cl)cc2)o1`, the TGI in assay [17], in assay [1], in assay [2], in assay [3], in assay [16] and in [4] was greater than 10 µM throughout. Further, the concentration for total growth inhibition (TGI) in assay [5], in assay [7], in assay [8], in assay [9], in assay [10] and in [11] was greater than 10 µM in each case. The TGI in [12], in [13] and in [15] was greater than 10 µM each time.
In the case of `CC(=O)O[C@H]1CC[C@H]2[C@@H]3CCc4cc(O)c(I)cc4[C@H]3CC[C@]12C`, the concentration for total growth inhibition (TGI) in assay [1] was 33.6 µM; in assay [2], 24 µM; in assay [3], 31.9 µM; in [16] it was greater than 100 µM; in assay [4], 33.8 µM; in assay [5], 26.6 µM. Besides, the TGI in [6] is 61.6 µM; in [7], 30.7 µM; in [8], 37.9 µM; in [9], 20 µM; in assay [10], 28.4 µM; in assay [11], 17.2 µM. Besides, the total growth inhibition concentration (TGI) is 29.1 µM in assay [12], 26.2 µM in assay [13], greater than 100 µM in assay [14] and 24.4 µM in assay [15]. Further, the GI50 in assay [2] is 11 µM; in assay [5] it was 13.1 µM; in assay [15], 12 µM.
For the molecule `COC(C)(C)C(O)C(O)C[C@H](C)C1CC=C2C1(C)CCC1[C@@]3(C)CCC(OC(C)=O)C(C)(C)C3CC(OC3OC(COC(C)=O)C(O)C(O)C3O)[C@@]21C` (stereo not given in full), the concentration for total growth inhibition (TGI) was 8.68 µM in [17]; 3.89 µM in [1]; greater than 10 µM in assay [2]; greater than 10 µM in assay [3]; greater than 10 µM in assay [16]; greater than 10 µM in assay [4]. Besides, the TGI in assay [5] is greater than 10 µM; in [6], 4.13 µM; in [7], greater than 10 µM; in assay [8] it was greater than 10 µM; in [9] it was greater than 10 µM; in [10] it was greater than 10 µM. In addition, the TGI in [11] was 4.38 µM; in assay [12], greater than 10 µM; in assay [13], greater than 10 µM; in [15] it was greater than 10 µM.
On to `NC(=S)SCCC(=O)O`, for which the TGI in assay [17], in assay [1], in assay [2], in [3], in assay [16] and in assay [4] was greater than 100 µM in each case. For the same molecule, the TGI in assay [5], in assay [6], in [7], in assay [8], in assay [9] and in [10] was greater than 100 µM in each case. Moreover, the concentration for total growth inhibition (TGI) in assay [11], in assay [12], in assay [13] and in assay [15] was greater than 100 µM in each case.

As a reminder, the TGI is the concentration giving total growth inhibition. The low end stands for greater sensitivity of the cells, the high end for lower sensitivity of the cells. What is called GI50 is the concentration giving 50% growth inhibition.

The record behind these values is PubChem BioAssay (NCI).
